According to US10085988B1, “Aglaroxin C and derivatives as HCV entry inhibitors” (SRI International, priority 2015, dated 2018):

What was measured:
[1] = system: JFH-1 genotype 2a infectious virus (HCVcc); experiment: HCV (HCVcc) infection / viral entry inhibition on Huh7.5.1 cells; type: cell-based, Hepatitis C virus; details: for EC50: Hepatitis C virus; for inhibition on HCV entry (enantiomer comparison): HCVcc infection
Description: (§1) (A) PHHs seeded in a 48-well plate were treated with Roc-A or DMSO and then infected by HCVpp. EC50and CC50 (50% cytotoxicity dose) were calculated based on the fitted Sigmoid curves. (B) Huh7.5.1 cells were treated with Roc-A (20 nM) or DMSO for 1, 2, and 3 days. Cellular PHB1, PHB2, CRaf, and Ras were detected by Western blotting. Numbers shown below Western blot gel images indicate the relative protein levels quantified by Odyssey imaging system (LI-COR Biosciences). (C-D) Flag-CRaf (F-CRaf) and V5-tagged PHB1 & 2 were co-transfected into 293T cells and then left untreated or treated with Roc-A (20 nM) before immunoprecipitation with anti-Flag antibody. The pulled-down PHB1 & 2 as well as CRaf were detected by immunoblotting. (E) Different inhibitory profiles of the (+)- and(−)-Roc-A enantiomers on HCVcc infection. (F) A CMV-luciferase reporter construct was transfected into Huh7.5.1 cells. 24 h post-transfection each compound was added to the cells for 3 h at 2 μM. After removal of the compound, the cells were further incubated for 24 h followed by luciferase assay. […] HCVcc-Luc was added to Huh7.5.1 cells at 37° C. and incubated for 3 h. At the indicated time points, 2μM of each compound or DMSO was added into the media and incubated for 3 h prior to removal. Infected cells were incubated at 37° C. for an additional 48 h prior to luciferase assay (mean of n=3; error bars, s.d.).
(§2) In a preferred embodiment, Y is C, R1, R3, and R4 from the structure 5 is —OCH3, and R2 and R5 is hydrogen, which is aglaroxin C. […] The term EC50 refers to the concentration of a drug or antibody which induces a response halfway between the baseline and maximum after a specified exposure time. It is commonly used as a measure of drug's potency. The 50% cytotoxic concentration (CC50) is defined as the quantity of a toxicant generating 50% of cell viability, compared to the control. The values of the percentages of cell viability were plotted against toxicant concentrations, and CC50 is determined. (TI) is a comparison of the amount of a therapeutic agent that causes the therapeutic effect to the amount that causes toxicity.

[2] = Cytotoxicity (CC50) on Huh7.5.1 cells; type: cell-based; details: human; for CC50 at 3 h: compounds incubated with cells for a total of 3 h on Huh7.5.1 cells; for CC50 at 48 h: compounds incubated with cells for a total of 48 h on Huh7.5.1 cells
Excerpt: as §2

[3] = system: protein translation (luciferase reporter gene); experiment: Translation inhibition, CMV-luciferase reporter transfected into Huh7.5.1 cells; type: cell-based, human; details: compound added for 3 h, luciferase reporter in Huh7.5.1 cells
Description: as §1

HCVpp = HCVpp infection/entry, primary human hepatocytes (PHHs), with cell viability; type: cell-based, Hepatitis C virus
[4] = system: HCV RNA replication or protein translation; experiment: HCV RNA replication or protein translation; type: cell-based, Hepatitis C virus; details: 20 nM
CHIKVpp = CHIKVpp infection of Huh7.5.1 cells; type: cell-based, chikungunya virus; details: low nanomolar concentrations
Description: FIGS. 4A and 4B illustrate that PHBs are required for CHIKVpp entry. (A) Huh7.5.1 were transfected with indicated siRNA, followed by infection of CHIKVpp (mean±SD, *p<0.05). (B) Huh 7.5.1 cells were treated with DMSO or Roc-A (10 nM) and then infected by CHIKVpp for luciferase assay (mean±SD, *p<0.05).

DENV2 = DENV2 infection of Huh7.5.1 cells; type: cell-based, dengue virus
Description: Huh7.5.1 cells were treated by DMSO, Roc-A (5nM) or Roc-A (10nM) for 10 hours prior to infection by DENV2 (MOI 0.1 and 1). 36 hours post-infection, cells were fixed in methanol and immunostained for DENV prM/E (red).

PHB1 and PHB2 = PHB1 and PHB2 (Homo sapiens (Human), UniProt P35232+Q99623); experiment: Cell surface biotinylation assay; type: cell-based; details: 20 nM, Huh7.5.1 cells
[5] = molecular target: PHB1, PHB2, CRaf, and Ras (Homo sapiens (Human), UniProt P35232+Q99623); experiment: Western blot of total cellular protein levels in Huh7.5.1 cells; type: cell-based; details: 20 nM, 1, 2, and 3 days
Description: as §1

PHB-CRaf interaction = PHB-CRaf interaction (Homo sapiens (Human), UniProt P35232+Q99623); experiment: Co-IP of Flag-CRaf and V5-tagged PHB1 & 2 in 293T cells; type: cell-based; details: 20 nM
Chain of PHB-CRaf interaction (P35232 whole entry): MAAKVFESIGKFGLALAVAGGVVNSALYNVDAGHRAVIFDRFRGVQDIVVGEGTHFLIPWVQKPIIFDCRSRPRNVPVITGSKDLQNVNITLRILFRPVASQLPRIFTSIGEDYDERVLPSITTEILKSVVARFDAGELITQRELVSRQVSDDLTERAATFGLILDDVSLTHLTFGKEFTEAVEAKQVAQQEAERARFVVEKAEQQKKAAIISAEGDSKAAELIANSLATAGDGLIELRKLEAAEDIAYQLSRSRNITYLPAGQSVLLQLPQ
Chain of PHB-CRaf interaction (Q99623 whole entry): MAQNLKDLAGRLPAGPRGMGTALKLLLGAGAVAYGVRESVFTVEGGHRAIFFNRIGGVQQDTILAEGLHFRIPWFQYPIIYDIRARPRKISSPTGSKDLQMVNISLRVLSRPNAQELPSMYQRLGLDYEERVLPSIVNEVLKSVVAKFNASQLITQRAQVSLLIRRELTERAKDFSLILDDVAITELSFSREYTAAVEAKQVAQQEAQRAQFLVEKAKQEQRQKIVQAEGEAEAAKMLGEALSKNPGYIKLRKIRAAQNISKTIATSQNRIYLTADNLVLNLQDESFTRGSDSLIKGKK
Description: as §1

[6] = human liver microsomal stability assay
HCVcc-Luc = experiment: Time-of-addition experiment, HCVcc-Luc on Huh7.5.1 cells; type: cell-based, Hepatitis C virus; details: 2 μM
Description: as §1

[7] = 3 h incubation on Huh7.5.1 cells
[8] = 48 h incubation on Huh7.5.1 cells

Structure (SMILES) | TI (CC50/EC50) [1, 7] | EC50 ([1]; Huh-7.5.1, 3 h) [nM] | CC50 at 3 h [2] [nM] | Translation inhibition at 2 μM [3] | TI (CC50/EC50) [1, 8] | inhibition on HCV entry (enantiomer comparison) [1] | EC50 ([1]; Huh-7.5.1, 48 h) [nM] | CC50 at 48 h [2] [nM] | other results
COc1ccc([C@]23Oc4cc(OC)cc(OC)c4[C@@]2(O)c2nc4n(c(=O)c2[C@@H]3c2ccccc2)CCC4)cc1 [(+)-aglaroxin C] | 5^1 | 20000 | 100000 | No |  |  |  |  | 
COc1ccc([C@]23Oc4cc(OC)cc(OC)c4[C@@]2(O)[C@@H](O)[C@@H](C(=O)N(C)C)[C@@H]3c2ccccc2)cc1 [(+) Roc-A] |  | > 200000 | 300000 | No |  |  |  |  | 
COc1ccc([C@@]23Oc4cc(OC)cc(OC)c4[C@]2(O)[C@H](O)[C@H](C(=O)N(C)C)[C@H]3c2ccccc2)cc1 [(−) Roc-A] | 50 | 1000 | 50000 | No | 75 | stronger inhibition on HCV entry than the (+) enantiomer | 4 | 300 | 
COc1ccc([C@@]23Oc4cc(OC)cc(OC)c4[C@]2(O)c2nc4n(c(=O)c2[C@H]3c2ccccc2)CCC4)cc1 [(−)-aglaroxin C] | 60^1 | 200 | 12000 | No |  | active enantiomer |  |  | 
COc1ccc([C@@]23Oc4cc(OC)cc(OC)c4[C@]2(O)[C@H](O)[C@H](C(=O)N(C)C)[C@H]3c2ccccc2)cc1 [Roc-A, rocaglamide A] |  |  |  |  |  |  |  |  | HCVcc infection ([1]; low nanomolar concentrations): significantly reduced; HCVpp infection (HCVpp; low nanomolar concentrations): significantly reduced; HCVpp entry (HCVpp; pretreatment of PHHs at non-cytotoxic concentrations): suppressed; inhibition of HCV RNA replication or protein translation [4]: did not inhibit; CHIKVpp infection (CHIKVpp): significantly reduced; DENV2 infection (DENV2; 5 nM or 10 nM for 10 hours prior to infection, MOI 0.1 and 1, Huh7.5.1 cells): reduced; dengue virus infection (DENV2; low nanomolar concentrations): significantly reduced; cell surface expression of PHB1 and 2 (PHB1 and PHB2): decreased; PHB1, 2, Ras, and CRaf at the total protein level [5]: decreased; PHB-CRaf interaction in co-IP experiment (PHB-CRaf interaction): disrupted; half-life [6]: 37 min
COc1ccc([C@@]23Oc4cc(OC)cc(OC)c4[C@]2(O)c2nc4n(c(=O)c2[C@H]3c2ccccc2)CCC4)cc1 (racemic) [(±) aglaroxin C (C10), aglaroxin C] | 100 | 100 | 10000 | No | 500 |  | 0.04 | 20 | half-maximum effective concentrations (EC50) ([1]; JFH-1 genotype 2a infectious virus in cell culture): picomolar; Translation inhibition at 2 μM ([3]; listed as chiral, racemic aglaroxin C): did not inhibit; anti-HCV activity (HCVcc-Luc; added about 3 h after the infection was initiated): lost its activity; anti-HCV activity (HCVcc-Luc; added together with the virus): inhibited HCV infection when added together with the virus; anti-HCV activity (HCVcc-Luc; added together with the virus, listed as chiral, racemic aglaroxin C): maximal anti-HCV activity
